# Test results published in US20250228239A1, “MOLECULES HAVING PESTICIDAL UTILITY, AND INTERMEDIATES, COMPOSITIONS, AND PROCESSES, RELATED THERETO” (priority 2024, published 2025).
# Columns and labels:
# Format in all cases: in vivo
# [1] = tested on: Beet Armyworm (Spodoptera exigua, LAPHEG); experiment: Bioassays on Beet Armyworm (BAW), 128-well diet tray assay; settings: Spodoptera exigua; for pest or weed control at 50 µg/cm2: Beet Armyworm, Table ABC / ABC-DP rating, read-out: BAW rating; for mortality at 50 µg/cm2: 168 h, second instar larvae, 50 μg/cm^2 of test molecule on artificial diet, 25° C., five to seven days, average of eight wells, read-out: BAW % Control (or Mortality) rating
# Procedure, shortened: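 Larvae at second instar are exposed on dried, compound-treated diet (50 μg/cm^2, delivered in 90:10 acetone-water) in eight replicate wells. After five to seven days at 25° C., 14:10 light-dark, percent mortality in each well is scored and the eight wells averaged.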
# [2] = tested on: Cabbage Looper (Trichoplusia ni, TRIPNI); experiment: Bioassays on Cabbage Looper (CL), 128-well diet tray assay; settings: Trichoplusia ni; for pest or weed control at 50 µg/cm2: Cabbage Looper, Table ABC / ABC-DP rating, read-out: CL rating; for mortality at 50 µg/cm2: 168 h, second instar larvae, 50 μg/cm^2 of test molecule on artificial diet, 25° C., five to seven days, average of eight wells, read-out: CL % Control (or Mortality) rating
# Procedure, shortened: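 Second-instar larvae (1–5 per well) placed on artificial diet surface-treated with 50 μg/cm^2 test molecule applied in 90:10 acetone-water and dried. Held at 25° C., 14:10 light-dark, for five to seven days. Percent mortality scored per well and averaged over eight wells.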
# [3] = tested on: Yellow Fever Mosquito (Aedes aegypti, AEDSAE); settings: for YFM rating: Yellow Fever Mosquito, Table ABC / ABC-DP rating; for YFM % Control (or Mortality) rating: about 1 day-old larvae, 4000 ppm master solution diluted with 90:10 water/acetone, 15 μL per well plus 220 μL larval mixture, 3 days
# Procedure, shortened: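 Compounds from DMSO master plates (4000 ppm stock) diluted in 90:10 water/acetone, then dispensed into six replicate plates and infested with ~1-day-old Aedes aegypti larvae in liver-powder water. Held covered at room temperature for 3 days; each well scored for larval mortality and graded on a rating scale.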
SMILES,pest or weed control at 50 µg/cm2 [1],pest or weed control at 50 µg/cm2 [2],YFM rating [3],mortality at 50 µg/cm2 [1],mortality at 50 µg/cm2 [2],YFM % Control (or Mortality) rating [3]
"CN(NCCC(F)(F)F)C(=O)c1cc(NC(=O)[C@H]2[C@H](c3cc(Cl)cc(Cl)c3)C2(Cl)Cl)ccc1Cl (relative stereo) [F2552, trans-2,2-Dichloro-N-(4-chloro-3-(1-methyl-2-(3,3,3-trifluoropropyl)hydrazine-1-carbonyl)phenyl)-3-(3,5-dichlorophenyl)cyclopropane-1-carboxamide]",50 to 100%,50 to 100%,A (80–100),,,
"O=C(NNc1ccc(F)cc1)c1cc(NC(=O)[C@H]2[C@H](c3cc(Cl)cc(Cl)c3)C2(Cl)Cl)ccc1Cl (relative stereo) [F2553, trans-2,2-Dichloro-N-(4-chloro-3-(2-(4-fluorophenyl)hydrazine-1-carbonyl)phenyl)-3-(3,5-dichlorophenyl)cyclopropane-1-carboxamide]",50 to 100%,50 to 100%,A (80–100),,,
"N#Cc1ccc(NNC(=O)c2cc(NC(=O)[C@H]3[C@H](c4cc(Cl)cc(Cl)c4)C3(Cl)Cl)ccc2Cl)cc1 (relative stereo) [F2554, trans-2,2-Dichloro-N-(4-chloro-3-(2-(4-cyanophenyl)hydrazine-1-carbonyl)phenyl)-3-(3,5-dichlorophenyl)cyclopropane-1-carboxamide]",50 to 100%,50 to 100%,A (80–100),,,
"O=C(NNc1ccc([N+](=O)[O-])cc1)c1cc(NC(=O)[C@H]2[C@H](c3cc(Cl)cc(Cl)c3)C2(Cl)Cl)ccc1Cl (relative stereo) [F2555, trans-2,2-Dichloro-N-(4-chloro-3-(2-(4-nitrophenyl)hydrazine-1-carbonyl)phenyl)-3-(3,5-dichlorophenyl)cyclopropane-1-carboxamide]",50 to 100%,50 to 100%,A (80–100),,,
"CN(NC(=O)c1cc(NC(=O)[C@H]2[C@H](c3cc(Cl)cc(Cl)c3)C2(Cl)Cl)ccc1Cl)c1ccccc1 (relative stereo) [F2557, trans-2,2-Dichloro-N-(4-chloro-3-(2-methyl-2-phenylhydrazine-1-carbonyl)phenyl)-3-(3,5-dichlorophenyl)cyclopropane-1-carboxamide]",50 to 100%,50 to 100%,A (80–100),,,
"O=C(NNc1cc(F)ccc1F)c1cc(NC(=O)[C@H]2[C@H](c3cc(Cl)cc(Cl)c3)C2(Cl)Cl)ccc1Cl (relative stereo) [F2558, trans-2,2-Dichloro-N-(4-chloro-3-(2-(2,5-difluorophenyl)hydrazine-1-carbonyl)phenyl)-3-(3,5-dichlorophenyl)cyclopropane-1-carboxamide]",50 to 100%,50 to 100%,A (80–100),,,
"O=C(NNc1ccc(F)cc1F)c1cc(NC(=O)[C@H]2[C@H](c3cc(Cl)cc(Cl)c3)C2(Cl)Cl)ccc1Cl (relative stereo) [F2559, trans-2,2-Dichloro-N-(4-chloro-3-(2-(2,4-difluorophenyl)hydrazine-1-carbonyl)phenyl)-3-(3,5-dichlorophenyl)cyclopropane-1-carboxamide]",50 to 100%,50 to 100%,B (More than 0 – Less than 80),,,
"O=C(NNc1cc(Cl)ccc1Cl)c1cc(NC(=O)[C@H]2[C@H](c3cc(Cl)cc(Cl)c3)C2(Cl)Cl)ccc1Cl (relative stereo) [F2561, trans-2,2-Dichloro-N-(4-chloro-3-(2-(2,5-dichlorophenyl)hydrazine-1-carbonyl)phenyl)-3-(3,5-dichlorophenyl)cyclopropane-1-carboxamide]",50 to 100%,50 to 100%,B (More than 0 – Less than 80),,,
"Cc1cc(F)ccc1NNC(=O)c1cc(NC(=O)[C@H]2[C@H](c3cc(Cl)cc(Cl)c3)C2(Cl)Cl)ccc1Cl (relative stereo) [F2562, trans-2,2-Dichloro-N-(4-chloro-3-(2-(4-fluoro-2-methylphenyl)hydrazine-1-carbonyl)phenyl)-3-(3,5-dichlorophenyl)cyclopropane-1-carboxamide]",50 to 100%,50 to 100%,A (80–100),50 to 100%,50 to 100%,A (80–100)
"COc1ccc(NNC(=O)c2cc(NC(=O)[C@H]3[C@H](c4cc(Cl)cc(Cl)c4)C3(Cl)Cl)ccc2Cl)cc1 (relative stereo) [F2563, trans-2,2-Dichloro-N-(4-chloro-3-(2-(4-methoxyphenyl)hydrazine-1-carbonyl)phenyl)-3-(3,5-dichlorophenyl)cyclopropane-1-carboxamide]",50 to 100%,50 to 100%,B (More than 0 – Less than 80),50 to 100%,50 to 100%,B (More than 0 – Less than 80)
"O=C(NNc1ccc(OC(F)(F)F)cc1)c1cc(NC(=O)[C@H]2[C@H](c3cc(Cl)cc(Cl)c3)C2(Cl)Cl)ccc1Cl (relative stereo) [F2564, trans-2,2-Dichloro-N-(4-chloro-3-(2-(4-(trifluoromethoxy)phenyl)hydrazine-1-carbonyl)phenyl)-3-(3,5-dichlorophenyl)cyclopropane-1-carboxamide]",50 to 100%,50 to 100%,A (80–100),50 to 100%,50 to 100%,A (80–100)
"O=C(NNc1ccc(OC(F)(F)C(F)(F)F)cc1)c1cc(NC(=O)[C@H]2[C@H](c3cc(Cl)cc(Cl)c3)C2(Cl)Cl)ccc1Cl (relative stereo) [F2565, trans-2,2-Dichloro-N-(4-chloro-3-(2-(4-(perfluoroethoxy)phenyl)hydrazine-1-carbonyl)phenyl)-3-(3,5-dichlorophenyl)cyclopropane-1-carboxamide]",50 to 100%,50 to 100%,,50 to 100%,50 to 100%,D (No activity noticed in this bioassay)
"Cl.NNC(=O)c1cc(NC(=O)[C@H]2[C@H](c3cc(Cl)cc(Cl)c3)C2(Cl)Cl)ccc1Cl (relative stereo) [F2567, trans-2,2-dichloro-N-(4-chloro-3-(hydrazinecarbonyl)phenyl)-3-(3,5-dichlorophenyl)cyclopropane-1-carboxamide hydrochloride]",50 to 100%,50 to 100%,A (80–100),50 to 100%,50 to 100%,A (80–100)
"O=C(NNc1cccc(C(F)(F)F)c1)c1cc(NC(=O)[C@H]2[C@H](c3cc(Cl)cc(Cl)c3)C2(Cl)Cl)ccc1Cl (relative stereo) [F2572, trans-2,2-Dichloro-N-(4-chloro-3-(2-(3-(trifluoromethyl)phenyl)hydrazine-1-carbonyl)phenyl)-3-(3,5-dichlorophenyl)cyclopropane-1-carboxamide]",50 to 100%,50 to 100%,A (80–100),50 to 100%,50 to 100%,A (80–100)
"N#Cc1ccccc1NNC(=O)c1cc(NC(=O)[C@H]2[C@H](c3cc(Cl)cc(Cl)c3)C2(Cl)Cl)ccc1Cl (relative stereo) [F2576, trans-2,2-Dichloro-N-(4-chloro-3-(2-(2-cyanophenyl)hydrazine-1-carbonyl)phenyl)-3-(3,5-dichlorophenyl)cyclopropane-1-carboxamide]",50 to 100%,50 to 100%,A (80–100),50 to 100%,50 to 100%,A (80–100)
"O=C(NN=Cc1ccccn1)c1cc(NC(=O)[C@H]2[C@H](c3cc(Cl)cc(Cl)c3)C2(Cl)Cl)ccc1Cl (relative stereo) [F3002, trans-2,2-Dichloro-N-(4-chloro-3-(2-(pyridin-2-ylmethylene)hydrazine-1-carbonyl)phenyl)-3-(3,5-dichlorophenyl)cyclopropane-1-carboxamide]",50 to 100%,50 to 100%,A (80–100),50 to 100%,50 to 100%,A (80–100)
"O=C(NN=Cc1cc(F)ccc1F)c1cc(NC(=O)[C@H]2[C@H](c3cc(Cl)cc(Cl)c3)C2(Cl)Cl)ccc1Cl (relative stereo) [F3003, trans-2,2-Dichloro-N-(4-chloro-3-(2-(2,5-difluorobenzylidene)hydrazine-1-carbonyl)phenyl)-3-(3,5-dichlorophenyl)cyclopropane-1-carboxamide]",50 to 100%,50 to 100%,A (80–100),50 to 100%,50 to 100%,A (80–100)
